Source: patent publication US10688080B2, “Compositions, methods of use, and methods of treatment” (priority 2016, dated 2020)

Key:
NDM-1 = target: T1, NDM-1 (Klebsiella pneumoniae, UniProt C7C422); test: Steady-state kinetic nitrocefin hydrolysis inhibition, NDM-1; type: biochemical; settings: for Ki: nitrocefin 10 μM, 1 μM ZnSO4, Ki=IC50/([S]/Km+1)
T1 construct: SUMO tag (cleaved yes); made in house; host or cells: bacteria, IPTG-induced
Method: For sumo tag NDM-1 metallo-beta-lactamase, bacteria were grown overnight at 30 C with shaking in 50 mL LB broth supplemented with 100 μg/mL ampicillin. Two liters of LB broth supplemented with 100 μg/mL ampicillin were each inoculated with 10 mL of overnight bacterial culture. Cultures were then grown at 37 C until an optical density at 600 nm (OD600) of 0.6-0.7. Protein expression was then initiated by the addition of IPTG (final concentration 0.5 mM), followed by growth for 16 hr at 20 C. Cells were pelleted by centrifugation and stored at −80 C until further use. The sumo tag NDM-1 beta-lactamase was purified by nickel affinity chromatography and gel filtration. Briefly, the cell pellets were thawed and re-suspended in 40 mL of buffer A (20 mM HEPES pH 7.4, 0.5 M NaCl, 20 mM imidazole) with one complete protease inhibitor cocktail tablet (Roche) and disrupted by sonication, followed by ultracentrifugation to clarify the lysate. After ultracentrifugation, the supernatant was passed through a 0.22 μm filter before loading onto a 5 mL HisTrap HP affinity column (GE Healthcare Life Sciences, USA) pre-equilibrated with buffer A. Sumo tag NDM-1 was eluted by a linear imidazole gradient (20 mM to 500 mM). Fractions were analyzed by SDS-PAGE. Fractions containing sumo tag NDM-1 were buffer exchanged into 20 mM HEPES pH 7.0, 100 mM NaCl. Cleavage of the sumo tag was then carried out with ULP1 protease overnight at room temperature and then concentrated using a 10 k NMWL Amicon Ultra-15 Centrifugal Filter Unit. The sample was then loaded back onto a nickel affinity column and the flow through was collected, containing the untagged NDM-1. NDM-1 was concentrated and loaded onto a gel filtration column (GE Healthcare Life Sciences) pre-equilibrated with 20 mM HEPES pH 7.0, 100 mM NaCl. Protein concentration was determined by absorbance at 280 using an extinction coefficient of 27,960.
(§1) Steady-state kinetic parameters were determined by using a Biotek Cytation 5 Cell Imaging Multi-Mode Reader. For KPC-2 and CTX M-14, each assay was performed in 100 mM Tris-HCl pH 7.0, 0.01% Triton X-100 at 37 C. Vmax and Km were determined from initial steady-state velocities from nitrocefin read at a wavelength of 486 nm. The kinetic parameters were obtained using the non-linear portion of the data to the Henri-Michaelis (equation 1) using Gera version 2.07. V=Vmax[S]/(Km+[S]) (Equation 1)
(§2) IC50, defined as the inhibitor concentration that results in a 50% reduction of nitrocefin (20 μM for KPC-2 and 50 μM for CTX M-14) hydrolysis was determined by measurements of initial velocities after mixing 1 nM of KPC-2 or CTX M-14 with increasing concentrations of inhibitors. The inhibition constant (Ki) was calculated according to equation 2: Ki=IC50/([S]/Km+1) (Equation 2)
For NDM-1, the procedures were the same as above except the assay was performed in 100 mM Tris-HCl pH 7.0, 1 μM ZnSO4, 0.01% Triton X-100. In addition, a nitrocefin concentration of 10 μM was used.

KPC-2 = target: T2, KPC-2 (Klebsiella pneumoniae, UniProt Q9F663); test: Steady-state kinetic nitrocefin hydrolysis inhibition, KPC-2; type: biochemical
T2 construct: made in house; host or cells: bacteria, IPTG-induced
T2 sequence (Q9F663 25-293 limits assumed): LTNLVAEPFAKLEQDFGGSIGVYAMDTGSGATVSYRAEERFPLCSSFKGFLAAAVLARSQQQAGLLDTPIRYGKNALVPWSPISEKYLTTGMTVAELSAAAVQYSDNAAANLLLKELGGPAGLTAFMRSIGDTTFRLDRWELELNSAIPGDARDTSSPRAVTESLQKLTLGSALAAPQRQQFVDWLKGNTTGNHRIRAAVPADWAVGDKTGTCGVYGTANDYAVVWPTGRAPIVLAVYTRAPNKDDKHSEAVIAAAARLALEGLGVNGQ
Method: For His tag KPC-2 beta-lactamase, bacteria were grown overnight at 30 C with shaking in 50 mL LB broth supplemented with 50 μg/mL kanamycin. Two liters of LB broth supplemented with 50 μg/mL kanamycin, 200 mM sorbitol, and 5 mM betaine were each inoculated with 10 mL of overnight bacterial culture. Cultures were then grown at 37 C until an optical density at 600 nm (OD600) of 0.6-0.7. Protein expression was then initiated by the addition of IPTG (final concentration 0.5 mM), followed by growth for 16 hr at 20 C. Cells were pelleted by centrifugation and stored at −80 C until further use. The his tag KPC-2 beta-lactamase was purified by nickel affinity chromatography and gel filtration. Briefly, the cell pellets were thawed and re-suspended in 40 mL of buffer A (20 mM Tris-HCl pH 8.0, 300 mM NaCl, 20 mM imidazole) with one complete protease inhibitor cocktail tablet (Roche) and disrupted by sonication, followed by ultracentrifugation to clarify the lysate. After ultracentrifugation, the supernatant was passed through a 0.22 μm filter before loading onto a 5 mL HisTrap HP affinity column (GE Healthcare Life Sciences, USA) pre-equilibrated with buffer A. His tag KPC-2 was eluted by a linear imidazole gradient (20 mM to 500 mM). Fractions were analyzed by SDS-PAGE. Fractions containing his tag KPC-2 were concentrated using a 10 k NMWL Amicon Ultra-15 Centrifugal Filter Unit. Concentrated his tag KPC-2 was then loaded onto a superdex 75 gel filtration column (GE Healthcare Life Sciences) pre-equilibrated with 20 mM Tris-HCl pH 8.0, 300 mM NaCl. Protein concentration was determined by absorbance at 280 using an extinction coefficient of 39,545.
as §1, §2

OXA-48 = OXA-48 (Klebsiella pneumoniae, UniProt Q6XEC0); test: Steady-state kinetic β-lactamase inhibition, OXA-48; type: biochemical; settings: read-out: OXA-48 % inhibition at stated concentration
Sequence of OXA-48 (Q6XEC0 23-265 limits assumed): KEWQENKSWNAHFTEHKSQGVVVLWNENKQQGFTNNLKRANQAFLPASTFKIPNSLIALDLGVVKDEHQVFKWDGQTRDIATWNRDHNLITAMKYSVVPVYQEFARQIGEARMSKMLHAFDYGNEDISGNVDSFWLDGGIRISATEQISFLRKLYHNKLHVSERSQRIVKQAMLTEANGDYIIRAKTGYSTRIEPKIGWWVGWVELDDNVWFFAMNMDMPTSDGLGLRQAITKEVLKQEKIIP

CTX-M14 = CTX-M14 (Escherichia coli, UniProt Q9L5C7); test: Steady-state kinetic nitrocefin hydrolysis inhibition, CTX-M14; type: biochemical; settings: for Ki: nitrocefin 50 μM, 1 nM enzyme, Ki=IC50/([S]/Km+1)
Sequence of CTX-M14 (Q9L5C7 29-291, species assumed): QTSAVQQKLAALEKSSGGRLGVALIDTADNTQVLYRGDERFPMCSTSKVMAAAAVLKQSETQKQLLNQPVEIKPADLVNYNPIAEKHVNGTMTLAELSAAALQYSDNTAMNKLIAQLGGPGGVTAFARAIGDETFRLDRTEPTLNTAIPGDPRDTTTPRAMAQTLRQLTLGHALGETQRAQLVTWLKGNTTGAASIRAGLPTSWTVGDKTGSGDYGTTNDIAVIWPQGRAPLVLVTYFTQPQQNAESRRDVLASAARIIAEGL
Method: as §1, §2

SHV-2 = SHV-2 (Klebsiella pneumoniae, UniProt P0A9Z8); test: Steady-state kinetic β-lactamase inhibition, SHV-2; type: biochemical
Sequence of SHV-2 (P0A9Z8 22-286): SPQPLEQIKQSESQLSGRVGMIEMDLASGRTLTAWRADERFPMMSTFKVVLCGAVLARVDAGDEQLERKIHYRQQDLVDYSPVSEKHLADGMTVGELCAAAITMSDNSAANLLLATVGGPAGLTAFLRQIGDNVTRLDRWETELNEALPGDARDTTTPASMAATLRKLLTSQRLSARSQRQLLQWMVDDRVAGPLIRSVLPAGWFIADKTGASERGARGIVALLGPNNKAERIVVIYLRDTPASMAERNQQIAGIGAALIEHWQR

[1] = system: BL21(DE3) E. coli expressing KPC-2; test: MIC studies, synergy with imipenem (broth microdilution); type: cell-based; settings: Escherichia coli, 24 h, read-out: MIC of imipenem
Method: Compounds were tested for synergy with the carbapenem antibiotic, imipenem, against BL21(DE3) E. coli expressing KPC-2. MIC values were determined with the Mueller-Hinton broth microdilution method. To test for inhibitory activity, compounds were dissolved in DMSO and dilutions were carried out using LB broth. Compounds were test at 100 μM with increasing concentrations of imipenem. […] After inoculation, the plates are incubated at 37 C for 24 hours. The MIC of the compounds are then determined visually.

T1 sequence (C7C422 29-270, looked up, species assumed): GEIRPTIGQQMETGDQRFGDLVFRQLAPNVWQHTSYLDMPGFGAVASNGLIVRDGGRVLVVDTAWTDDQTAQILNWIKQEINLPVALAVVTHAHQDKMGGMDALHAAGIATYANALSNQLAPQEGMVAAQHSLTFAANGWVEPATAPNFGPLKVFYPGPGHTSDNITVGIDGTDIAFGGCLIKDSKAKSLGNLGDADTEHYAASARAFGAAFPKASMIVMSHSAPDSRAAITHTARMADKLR

O=C(Nc1nnn[nH]1)C1CN(C(=O)c2cccc(C(F)(F)F)c2)c2ccccc21 (centres unmarked) [Compound 2, N-(1H-tetrazol-5-yl)-1-(3-(trifluoromethyl)benzoyl)indoline-3-carboxamide]
Ki (NDM-1): 958 µM | Ki (KPC-2): 1.2 µM

O=C(Nc1nc(C(=O)Nc2nnn[nH]2)c(-c2ccccc2)s1)c1nccs1 [Compound 6, N-(4-((1H-tetrazol-5-yl)carbamoyl)-5-phenylthiazol-2-yl)thiazole-2-carboxamide]
inhibition at 4800 µM (OXA-48): 50% | Ki (KPC-2): 26 µM

O=C(Nc1nnn[nH]1)[C@@H]1CCCN(S(=O)(=O)c2cccc(C(F)(F)F)c2)C1 [Compound 9, (R)—N-(1H-tetrazol-5-yl)-1-((3-(trifluoromethyl)phenyl)sulfonyl)piperidine-3-carboxamide]
inhibition at 4800 µM (OXA-48): 20% | Ki (KPC-2): 78 µM | Ki (CTX-M14): 243 µM

O=C(N[C@H]1CCCCN(c2nnn[nH]2)C1=O)c1cc(C(F)(F)F)cc2nc[nH]c12.O=CO [Compound 21, (S)—N-(2-oxo-1-(1H-tetrazol-5-yl)azepan-3-yl)-5-(trifluoromethyl)-1H-benzo[d]imidazole-7-carboxamide formate]
Ki (SHV-2): 60 µM | KPC-2 % inhibition at stated concentration (KPC-2; at 1600 (uM)): 30% at 1600 | Ki (CTX-M14): 236 µM

O=C(Nc1nnn[nH]1)C(Sc1ccccc1)c1ccccc1 (centres unmarked) [Compound 22, 2-phenyl-2-(phenylthio)-N-(1H-tetrazol-5-yl)acetamide]
Ki (NDM-1): 58 µM | Ki (KPC-2): 26.5 µM

O=C(Nc1nnn[nH]1)C(Nc1ccccc1)c1ccccc1 (centres unmarked) [Compound 25, 2-phenyl-2-(phenylamino)-N-(1H-tetrazol-5-yl)acetamide]
Ki (NDM-1): 652 µM | inhibition at 5000 µM (OXA-48): 40% | Ki (KPC-2): 519 µM

O=C(Nc1nnn[nH]1)c1cn(S(=O)(=O)c2cccc(C(F)(F)F)c2)c2ccccc12 [Compound 27]
Ki (KPC-2): 300 µM

CC(c1cccc(C(F)(F)F)c1)n1cc(C(=O)Nc2nnn[nH]2)c2ccccc21 (centres unmarked) [Compound 29]
KPC-2 % inhibition at stated concentration (KPC-2; at 1900 (uM)): 50% at 1900 | CTX-M14 % inhibition at stated concentration (CTX-M14; at 1900 (uM)): 50% at 1900

O=C(Nc1nnn[nH]1)c1c[nH]c2ccccc12 [Compound 30]
Ki (NDM-1): 354 µM | Ki (KPC-2): 3000 µM

CC1(C(=O)Nc2nnn[nH]2)CN(C(=O)c2cccc(C(F)(F)F)c2)c2ccccc21 (centres unmarked) [Compound 31]
Ki (NDM-1): 200 µM | Ki (KPC-2): 354 µM

CC(=O)N1CC(C)(C(=O)Nc2nnn[nH]2)c2ccccc21 (centres unmarked) [Compound 32]
Ki (NDM-1): 156 µM | inhibition at 3900 µM (OXA-48): 16% | KPC-2 % inhibition at stated concentration (KPC-2; at 4800 (uM)): 40% at 4800 | CTX-M14 % inhibition at stated concentration (CTX-M14; at 4800 (uM)): 10% at 4800

CC1(C(=O)Nc2nnn[nH]2)CN(S(C)(=O)=O)c2ccccc21 (centres unmarked) [Compound 33]
Ki (NDM-1): 161 µM | inhibition at 3900 µM (OXA-48): 20% | Ki (KPC-2): 2700 µM

O=C(Nc1nc(C(=O)Nc2nnn[nH]2)c(-c2ccccc2)s1)c1ncc[nH]1.O=CO [Compound 34]
NDM-1 % inhibition at stated concentration (NDM-1; at 1000 (uM)): 20% at 1000 | inhibition at 1600 µM (OXA-48): 35% | Ki (KPC-2): 111 µM

O=C(Nc1nc(C(=O)Nc2nnn[nH]2)c(-c2ccccc2)s1)c1ncco1 [Compound 35]
inhibition at 800 µM (OXA-48): 20%

O=C(Nc1nnn[nH]1)[C@@H]1CCN(C(=O)c2cccc(C(F)(F)F)c2)C1 [Compound 36]
Ki (NDM-1): 48 µM | Ki (KPC-2): 2000 µM | Ki (CTX-M14): 2980 µM

O=C(Nc1nnn[nH]1)[C@@H]1CCN(S(=O)(=O)c2cccc(C(F)(F)F)c2)C1 [Compound 37]
NDM-1 % inhibition at stated concentration (NDM-1; at 1800 (uM)): 30% at 1800 | Ki (KPC-2): 470 µM | Ki (CTX-M14): 1000 µM

O=C(Nc1nnn[nH]1)[C@H]1CCN(C(=O)c2cccc(C(F)(F)F)c2)C1 [Compound 38]
NDM-1 % inhibition at stated concentration (NDM-1; at 3500 (uM)): 40% at 3500 | Ki (KPC-2): 2000 µM | Ki (CTX-M14): 3000 µM

O=C(Nc1nnn[nH]1)[C@H]1CCN(S(=O)(=O)c2cccc(C(F)(F)F)c2)C1 [Compound 39]
NDM-1 % inhibition at stated concentration (NDM-1; at 1800 (uM)): 10% at 1800 | Ki (KPC-2): 1500 µM | Ki (CTX-M14): 2000 µM

O=C(Nc1nnn[nH]1)[C@@H]1CCCN(C(=O)c2cccc(C(F)(F)F)c2)C1 [Compound 40]
NDM-1 % inhibition at stated concentration (NDM-1; at 1000 (uM)): 20% at 1000 | inhibition at 4800 µM (OXA-48): 35% | Ki (KPC-2): 110 µM

O=C(CNc1ccccc1)Nc1nnn[nH]1 [Compound 42]
Ki (KPC-2): 1200 µM

C[C@@H](O)[C@H]1C(=O)N2C(C(=O)O)=C(SCCN=CN)C[C@H]12 [Imipenem, imipenem]
MIC [1]: 2 µg/mL
